According to DBAASP:
Values after ≈ are worked out from the molar mass of the structure shown. Each block holds one compound with its values, some of them ahead of it.

Tests used:
Assay in all cases: ≥ marks a high value that may be exact or a test limit, other limits are often not marked, values filed in µg/mL are converted to µM
[1] = tested on: Bacillus subtilis CMCC 63501
[2] = tested on: Enterococcus faecalis ATCC 29212
[3] = tested on: Escherichia coli ATCC 25922
Escherichia coli UB1005 = tested on: Escherichia coli UB1005
[4] = tested on: Pseudomonas aeruginosa ATCC 27853
[5] = tested on: Salmonella enterica subsp. enterica serovar Pullorum C79-13
[6] = tested on: Salmonella enterica subsp. enterica serovar Typhimurium C77-31
[7] = tested on: Staphylococcus aureus ATCC 29213
[8] = tested on: Staphylococcus aureus ATCC 43300
[9] = tested on: Staphylococcus epidermidis ATCC 12228
Aureobasidium pullulans = tested on: Aureobasidium pullulans
Bacillus megaterium = tested on: Bacillus megaterium
[10] = tested on: Bacillus subtilis ATCC 23857
[11] = tested on: Candida albicans ATCC 10231
[12] = tested on: Corynebacterium glutamicum ATCC 13032
Micrococcus luteus = tested on: Micrococcus luteus
[13] = tested on: Staphylococcus aureus ATCC 9144
Escherichia coli K-12 = tested on: Escherichia coli K-12
Klebsiella pneumoniae = tested on: Klebsiella pneumoniae
[14] = tested on: Pseudomonas aeruginosa PAO1
[15] = tested on: Staphylococcus aureus NCTC 8325-4
[16] = tested on: Bacillus subtilis CCT 2471
Candida albicans = tested on: Candida albicans
[17] = tested on: Escherichia coli CCT 1371
[18] = tested on: Pseudomonas aeruginosa ATCC 15442
[19] = tested on: Staphylococcus aureus ATCC 25923
[20] = tested on: Staphylococcus aureus ATCC 6538
[21] = tested on: Staphylococcus epidermidis
[22] = tested on: Staphylococcus saprophyticus
Acinetobacter baumannii = tested on: Acinetobacter baumannii
Enterococcus faecalis = tested on: Enterococcus faecalis
Pseudomonas aeruginosa = tested on: Pseudomonas aeruginosa
Staphylococcus aureus = tested on: Staphylococcus aureus
Aspergillus fumigatus = tested on: Aspergillus fumigatus
Escherichia coli = tested on: Escherichia coli
[23] = tested on: Salmonella enterica subsp. enterica serovar Typhimurium ATCC 14028
Proteus mirabilis = tested on: Proteus mirabilis
Streptococcus pyogenes = tested on: Streptococcus pyogenes

Compound: CC[C@H](C)[C@H](N)C(=O)N[C@@H](CCCCN)C(=O)N[C@@H](CCCCN)C(=O)N[C@H](C(=O)N[C@H](C(=O)N[C@@H](CCCCN)C(=O)N[C@@H](CCCCN)C(=O)N[C@H](C(=O)N[C@H](C(=O)N[C@@H](CCCCN)C(N)=O)[C@@H](C)CC)[C@@H](C)CC)[C@@H](C)CC)[C@@H](C)CC [IKKIIKKIIK]
MIC (Escherichia coli K-12): ≥ 500 µM
MIC (Klebsiella pneumoniae): > 500 µM
MIC [14]: > 500 µM
MIC [15]: ≥ 500 µM

Compound: CC[C@H](C)[C@H](N)C(=O)N[C@@H](CC(N)=O)C(=O)N[C@@H](CC(C)C)C(=O)N[C@@H](CC(C)C)C(=O)N[C@@H](CCCCN)C(=O)N[C@H](C(=O)N[C@@H](C)C(=O)N[C@@H](CCCCN)C(=O)NCC(=O)N[C@H](C(=O)N[C@H](C(=O)N[C@@H](CCCCN)C(=O)N[C@@H](CO)C(=O)N[C@@H](CC(C)C)C(=O)O)[C@@H](C)CC)[C@@H](C)CC)[C@@H](C)CC [INLLKIAKGIIKSL]
MIC [16]: ≥ 65.6 µM
MIC (Candida albicans): > 65.6 µM
MIC [3]: 16.4 µM (≈ 25 µg/mL)
MIC [17]: ≥ 32.8 µM
MIC [18]: ≥ 65.6 µM
MIC [19]: 6.56 µM (≈ 10 µg/mL)
MIC [20]: 65.6 µM (≈ 100 µg/mL)
MIC [21]: ≥ 32.8 µM
MIC [22]: 16.4 µM (≈ 25 µg/mL)

Compound: CC(C)C[C@H](NC(=O)[C@H](CC(C)C)NC(=O)[C@H](CCCCN)NC(=O)[C@H](CCCCN)NC(=O)[C@H](C)NC(=O)[C@H](CC(C)C)NC(=O)[C@H](C)NC(=O)[C@H](CCCCN)NC(=O)[C@H](CC(C)C)NC(=O)[C@H](Cc1c[nH]c2ccccc12)NC(=O)[C@H](Cc1c[nH]c2ccccc12)NC(=O)[C@H](CCCN=C(N)N)NC(=O)[C@H](Cc1c[nH]c2ccccc12)NC(=O)[C@H](CCCCN)NC(=O)[C@@H](N)CCCCN)C(N)=O [KKWRWWLKALAKKLL]
MIC (Acinetobacter baumannii): 0.203 µM (≈ 0.4 µg/mL)
MIC (Enterococcus faecalis): 0.356 µM (≈ 0.7 µg/mL)
MIC (Pseudomonas aeruginosa): 0.61 µM (≈ 1.2 µg/mL)
MIC (Staphylococcus aureus): 0.254 µM (≈ 0.5 µg/mL)

Compound: CC(C)C[C@H](NC(=O)[C@H](Cc1ccccc1)NC(=O)[C@@H]1CCCN1C(=O)[C@H](Cc1c[nH]c2ccccc12)NC(=O)[C@H](CS)NC(=O)[C@@H](NC(=O)[C@H](Cc1c[nH]c2ccccc12)NC(=O)[C@@H]1CCCN1C(=O)[C@H](Cc1ccccc1)NC(=O)[C@H](CCCN=C(N)N)NC(=O)[C@H](CCCN=C(N)N)NC(=O)[C@@H](N)CCCN=C(N)N)C(C)C)C(=O)N[C@@H](CCCN=C(N)N)C(=O)N[C@@H](CCCN=C(N)N)C(=O)N[C@@H](CCCN=C(N)N)C(=O)O [RRRFPWVCWPFLRRR]
MIC (Aspergillus fumigatus): ≥ 117 µM
MIC (Candida albicans): 469 µM (≈ 1000 µg/mL)

Compound: CC[C@H](C)[C@H](NC(=O)CNC(=O)[C@H](CCCN=C(N)N)NC(=O)[C@H](Cc1ccc(O)cc1)NC(=O)[C@H](CC(C)C)NC(=O)[C@H](CCCCN)NC(=O)CNC(=O)[C@H](Cc1ccccc1)NC(=O)[C@@H](N)Cc1c[nH]c2ccccc12)C(=O)N[C@H](C(=O)N[C@@H](CO)C(=O)N[C@H](C(=O)N[C@H](C(=O)N[C@@H](CCCCN)C(=O)N[C@@H](CCCCN)C(=O)N[C@H](C(=O)N[C@@H](CCCCN)C(=O)NCC(=O)N[C@@H](CC(C)C)C(=O)N[C@@H](CC(C)C)C(=O)N[C@@H](CO)C(=O)NCC(=O)O)C(C)C)C(C)C)C(C)C)[C@@H](C)O [WFGKLYRGITSVVKKVKGLLSG]
MIC (Acinetobacter baumannii): 1.3 µM (≈ 3.17 µg/mL)
MIC (Enterococcus faecalis): 2.6 µM (≈ 6.34 µg/mL)
MIC (Escherichia coli): 1.3 µM (≈ 3.17 µg/mL)
MIC (Klebsiella pneumoniae): 1.3 µM (≈ 3.17 µg/mL)
MIC (Pseudomonas aeruginosa): 2.6 µM (≈ 6.34 µg/mL)
MIC (Staphylococcus aureus): 10.3 µM (≈ 25.1 µg/mL)
MIC [21]: 2.6 µM (≈ 6.34 µg/mL)

Compound: C[C@H](NC(=O)[C@H](C)NC(=O)[C@H](CCCCN)NC(=O)[C@H](C)NC(=O)[C@H](C)NC(=O)[C@H](C)NC(=O)[C@H](CCCCN)NC(=O)[C@H](Cc1c[nH]c2ccccc12)NC(=O)[C@@H](N)Cc1c[nH]c2ccccc12)C(=O)N[C@@H](C)C(=O)N[C@@H](CCCCN)C(=O)N[C@@H](Cc1c[nH]c2ccccc12)C(=O)N[C@@H](Cc1c[nH]c2ccccc12)C(N)=O [WWKAAAKAAAKWW]
MIC [1]: 4 µM (≈ 6.29 µg/mL)
MIC [2]: 4 µM (≈ 6.29 µg/mL)
MIC [3]: 2 µM (≈ 3.15 µg/mL)
MIC (Escherichia coli UB1005): 4 µM (≈ 6.29 µg/mL)
MIC [4]: 8 µM (≈ 12.6 µg/mL)
MIC [5]: 2 µM (≈ 3.15 µg/mL)
MIC [23]: 8 µM (≈ 12.6 µg/mL)
MIC [7]: 4 µM (≈ 6.29 µg/mL)
MIC [9]: 4 µM (≈ 6.29 µg/mL)

Now from value to compound:

MIC [1]: ≥ 128 µM
MIC [2]: > 128 µM
MIC [3]: 32 µM (≈ 65 µg/mL)
MIC (Escherichia coli UB1005): ≥ 128 µM
MIC [4]: > 128 µM
MIC [5]: 16 µM (≈ 32.5 µg/mL)
MIC [6]: ≥ 128 µM
MIC [7]: > 128 µM
MIC [8]: > 128 µM
MIC [9]: > 128 µM
Compound: CC[C@H](C)[C@H](NC(=O)[C@H](CCCN=C(N)N)NC(=O)[C@H](CCCCN)NC(=O)[C@H](Cc1ccccc1)NC(=O)[C@H](CCC(=O)O)NC(=O)[C@H](CCCCN)NC(=O)CN)C(=O)N[C@H](C(=O)N[C@@H](Cc1c[nH]c2ccccc12)C(=O)N[C@@H](CC(C)C)C(=O)N[C@@H](CO)C(=O)N[C@@H](CCCCN)C(=O)N[C@H](C(=O)N[C@@H](C)C(=O)N[C@@H](CCCCN)C(=O)N[C@@H](CCCCN)C(=O)N[C@@H](CC(C)C)C(N)=O)[C@@H](C)O)C(C)C [GKEFKRIVWLSKTAKKL]

MIC (Aureobasidium pullulans): 24.6 µM (≈ 31.3 µg/mL)
MIC (Bacillus megaterium): 0.785 µM (≈ 0.999 µg/mL)
MIC [10]: 12.2 µM (≈ 15.6 µg/mL)
MIC [11]: 24.6 µM (≈ 31.3 µg/mL)
MIC [12]: 1.57 µM (≈ 2 µg/mL)
MIC [3]: 24.6 µM (≈ 31.3 µg/mL)
MIC (Micrococcus luteus): 12.2 µM (≈ 15.6 µg/mL)
MIC [4]: 196 µM (≈ 250 µg/mL)
MIC [13]: ≥ 196 µM
Compound: C[C@H](NC(=O)[C@H](CCCCN)NC(=O)[C@H](Cc1c[nH]c2ccccc12)NC(=O)CNC(=O)[C@H](Cc1c[nH]c2ccccc12)NC(=O)[C@H](Cc1c[nH]c2ccccc12)NC(=O)[C@H](CCCCN)NC(=O)[C@H](CCCCN)NC(=O)CN)C(=O)N[C@@H](CCCCN)C(N)=O [GKKWWGWKAK]

MIC (Aureobasidium pullulans): ≥ 50 µM
MIC [11]: 25 µM (≈ 36.4 µg/mL)
MIC [12]: 1.6 µM (≈ 2.33 µg/mL)
MIC [3]: 12.5 µM (≈ 18.2 µg/mL)
MIC [4]: 12.5 µM (≈ 18.2 µg/mL)
MIC [13]: ≥ 100 µM
Compound: CC(C)[C@H](NC(=O)[C@H](CCCCN)NC(=O)[C@H](C)NC(=O)[C@@H](NC(=O)[C@@H](NC(=O)[C@H](CCCN=C(N)N)NC(=O)[C@H](CCCN=C(N)N)NC(=O)[C@H](Cc1c[nH]c2ccccc12)NC(=O)[C@H](Cc1c[nH]c2ccccc12)NC(=O)CN)[C@@H](C)O)C(C)C)C(=O)N[C@@H](C)C(=O)N[C@@H](CCCCN)C(N)=O [GWWRRTVAKVAK]

MIC (Proteus mirabilis): ≥ 39 µM
MIC (Pseudomonas aeruginosa): > 39 µM
MIC (Staphylococcus aureus): 5.49 µM (≈ 9 µg/mL)
MIC (Streptococcus pyogenes): 0.61 µM (≈ 1 µg/mL)
Compound: NC(N)=NCCC[C@H](NC(=O)[C@H](CCCN=C(N)N)NC(=O)[C@H](CCCN=C(N)N)NC(=O)[C@H](CCCN=C(N)N)NC(=O)[C@H](CCCN=C(N)N)NC(=O)[C@H](CCCN=C(N)N)NC(=O)[C@H](CCCN=C(N)N)NC(=O)[C@H](CCCN=C(N)N)NC(=O)[C@H](Cc1c[nH]c2ccccc12)NC(=O)[C@@H](N)Cc1c[nH]c2ccccc12)C(=O)O [WWRRRRRRRR]
